The values below are quoted from earlier work in patent EP4778540A1, “ANTIBODY-DRUG CONJUGATE CONTAINING HETEROCYCLIC COMPOUND HAVING ACTIVITY OF INDUCING DECOMPOSITION OF G12D MUTANT KRAS PROTEIN” (Astellas Pharma Inc., priority 2023, dated 2025).

Counter-ions that a name gives are not always drawn.

In the data set the target is T1, mutant RAS G12D protein (Homo sapiens, UniProt P01116, G12D).
T1 construct: endogenous in cells; host or cells: AsPC-1 (human pancreatic cancer line)
The note with it: human G12D mutant KRAS-positive pancreatic cancer line AsPC-1, cited from earlier work; for DC50: DC50 of D10 calculated from a molecular weight in terms of 4 hydrochloride.

T1 sequence (P01116 1-188 isoform P01116-2 G12D): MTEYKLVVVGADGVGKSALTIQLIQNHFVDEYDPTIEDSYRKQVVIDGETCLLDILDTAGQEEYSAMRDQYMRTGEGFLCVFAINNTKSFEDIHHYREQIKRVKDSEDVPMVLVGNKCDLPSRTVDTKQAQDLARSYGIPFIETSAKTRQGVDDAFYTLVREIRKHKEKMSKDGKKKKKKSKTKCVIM

Regarding `COC(C)COc1nc(N(C)C2CCNC2)c2cc(C3CC3)c(-c3c(C)c(F)cc4[nH]ncc34)c(OCc3ccc(-c4cn(C(C(=O)N5CC(O)CC5C(=O)NC(CO)c5ccc(-c6scnc6C)cc5)C(C)C)nn4)cc3)c2n1` [D7, (4R)-1-[(2S)-2-{4-[4-({[(7M)-6-cyclopropyl-7-(6-fluoro-5-methyl-1H-indazol-4-yl)-2-[(2S)-2-methoxypropoxy]-4-{methyl[(3S)-pyrrolidin-3-yl]amino}quinazolin-8-yl]oxy}methyl)phenyl]-1H-1,2,3-triazol-1-yl}-3-methylbutanoyl]-4-hydroxy-N-{(1R)-2-hydroxy-1-[4-(4-methyl-1,3-thiazol-5-yl)phenyl]ethyl}-L-prolinamide], the DC50 was 10 nM.

Turning to `Cc1c(F)cc2[nH]ncc2c1-c1c(C2CC2)cc2c(N3CC4CC3CN4)nc(OC3CCOCC3)nc2c1OCc1ccc(C(=O)N2CCN(Cc3ccc4c(c3)n(C)c(=O)n4C3CCC(=O)NC3=O)CC2C)cc1` [D9, 3-(5-{[(3S)-4-{4-[({(7M)-6-cyclopropyl-4-[(1S,4S)-2,5-diazabicyclo[2.2.1]heptan-2-yl]-7-(6-fluoro-5-methyl-1H-indazol-4-yl)-2-[(oxan-4-yl)oxy]quinazolin-8-yl}oxy)methyl]benzoyl} -3-methylpiperazin-1-yl]methyl}-3-methyl-2-oxo-2,3-dihydro-1H-benzimidazol-1-yl)piperidine-2,6-dione], the DC50 was 13 nM and the Dmax was 86%.

With `Cc1c(F)cc2[nH]ncc2c1-c1c(C2CC2)cc2c(N3C[C@@H]4C[C@H]3CN4)nc(OC3CCOCC3)nc2c1OCc1ccc(C(=O)N2CCN(Cc3ccc4c(N5CCC(=O)NC5=O)nn(C)c4c3)C[C@@H]2C)cc1` [D10, 1-(6-{[(3S)-4-{4-[({(7M)-6-cyclopropyl-4-[(1S,4S)-2,5-diazabicyclo[2.2.1]heptan-2-yl]-7-(6-fluoro-5-methyl-1H-indazol-4-yl)-2-[(oxan-4-yl)oxy]quinazolin-8-yl}oxy)methyl]benzoyl}-3-methylpiperazin-1-yl]methyl}-1-methyl-1H-indazol-3-yl)-1,3-diazinane-2,4-dione n-hydrochloride], the DC50 was 71 nM and the Dmax is listed as 86%.

For the compound `CO[C@@H](C)COc1nc(N2C[C@@H]3C[C@H]2CN3)c2cc(C3CC3)c(-c3c(C)c(F)cc4[nH]ncc34)c(OCc3ccc(C(=O)N4CCN(Cc5ccc6c(c5)n(C)c(=O)n6C5CCC(=O)NC5=O)C[C@@H]4C)cc3)c2n1` (stereo partly drawn) [D11, 3-(5-{[(3S)-4-{4-[({(7M)-6-cyclopropyl-4-[(1S,4S)-2,5-diazabicyclo[2.2.1]heptan-2-yl]-7-(6-fluoro-5-methyl-1H-indazol-4-yl)-2-[(2S)-2-methoxypropoxy]quinazolin-8-yl}oxy)methyl]benzoyl}-3-methylpiperazin-1-yl]methyl}-3-methyl-2-oxo-2,3-dihydro-1H-benzimidazol-1-yl)piperidine-2,6-dione], the DC50 was 8 nM and the Dmax is listed as 86%.
